In a melting point compilation (Tetko et al.; mined from patent text by program, amines drawn as free bases though some values may be those of a salt):

melting point [°C] | Structure (SMILES)
211 | CC(C)(C)c1cc(C(C(=O)O)c2cc(C(C)(C)C)c(O)c(C(C)(C)C)c2)cc(C(C)(C)C)c1O
232 to 233 | COc1nc(C)cnc1NS(=O)(=O)c1cnccc1-c1ccc(CC(C)C)cc1
89 to 90 | CCn1ncc2c(Cl)c(C=O)cnc21
95 to 96 | CCOC(=S)c1ccc2sc(CCl)c(C)c2c1
162 to 163 | O=C(O)Cc1ccc(C(=O)c2ccc(Cl)cc2)n1Cc1ccccc1
134 to 135 | O=C(O)C1(O)CCc2ccccc2C1 (single isomer, unassigned; (-))
196 to 199 | CC(=O)Nc1nc(C=O)cs1
60 | COC(=O)c1ccc(OCCCCCCCc2cc(C)no2)cc1
228 | Cc1ccc(-c2cc(-c3ccc(Cl)cc3)n[nH]2)cc1
185 to 186 | CCOc1cc(Cc2cnc(N)nc2N)cc2c1OC(C)(C)C=C2c1cccc(F)c1
130 to 134 | COC(=O)c1c(S(=O)C(C)C)c2cc(OC)ccc2n1C (stereo not given)
196 | OC1CSC(Oc2ccc(-c3ccncc3)nc2F)C(O)C1O (stereo not given)
232 to 235 | CC(=O)N(C)c1c(C(=O)c2ccccc2)[nH]c2cc(Cl)ccc12
95 to 96 | O=C(Cn1ccnc1)N1CCC(Oc2c(F)c(F)c(F)c(F)c2F)CC1
240 | O=c1[nH]cc(C(c2ccccc2)c2ccccc2)cc1C(c1ccccc1)c1ccccc1
82 to 84 | COc1ccccc1OCC1SCCN1C(=O)CBr (stereo not given)
119 to 120 | ClCc1coc(-c2ccc(OCc3ccccc3)cc2)n1
250 to 251 | Cc1cccc(C(=O)NN2NC=CC2C(=O)NCC(O)c2ccc(C(F)(F)F)cc2)n1 (stereo not given)

melting point [°C] | Structure (SMILES)
76 | O=S(=O)(Cl)c1ccc(Oc2ccc(F)cc2)cc1
174 | CCOC(=O)c1cn(-c2nonc2C)c2cc(F)c(F)c(C)c2c1=O
200 to 210 | O=C(O)c1cc(-c2ccc3c(c2)CCO3)nn(Cc2ccc(Cl)cc2)c1=O
189 to 192 | Clc1ccc(-c2nc3n(c2-c2ccc(Cl)cc2)CCC3)cc1
139 to 141 | COc1cccc(C(=O)Nc2ccc(C(=O)c3ccccc3)cc2)c1
71 to 73 | FC(F)=Cc1nn(-c2c(Cl)cc(C(F)(F)F)cc2Cl)cc1C1CC1(Br)Br (stereo not given)
200 to 201 | O=C(C=Cc1ccc(F)cc1)C(=O)Nc1ccc(C(F)(F)F)cc1
240 | O=c1[nH]c2ccc3c(c2[nH]1)OC(CO)CC3 (stereo not given)
117 to 119 | Fc1cc(CC2(Cc3ccncc3)c3ccccc3-c3sccc32)ccn1 (stereo not given)
193 to 195 | O=c1ccc(-c2c(-c3ccccc3)nn3ccccc23)nn1[C@H]1CC[C@@H](C(=O)O)CC1
149 to 150 | Cc1ccc2c(c1)Oc1sc(C)cc1C(N1CCN(C)CC1)=N2
113 to 114 | CCOC(=O)N=P(c1ccccc1)(c1ccccc1)c1ccccc1C
213 to 215 | O=C(Nc1cccc(C(F)(F)F)c1)Nc1ccc2[nH]c(C(F)(F)F)nc2c1
229 to 231 | CC(=O)Nc1ccc(-c2ccnc3c(C(=O)c4ccccc4)cnn23)cc1
139 to 140 | Cn1nc2ccc(OCCCN3CCC(OC(c4ccccc4)c4ccccc4)CC3)nn2c1=O
93 to 99 | CC(C)(C)NC(=O)C(O)c1cccc(Cl)c1 (stereo not given)
213 to 215 | Nc1nc2ccc(NC(=O)c3ccccc3)cc2s1

The next lines start with the molecule.

Structure (SMILES) | melting point [°C]
CCOC(=O)c1nc2n(c(=O)c1OCc1ccccc1)CCCC2 | 151
Cc1onc(-c2ccccc2)c1-c1ccc(S(=O)(=O)NC(=O)CC(C)(C)S)cc1 | 138 to 140
Oc1ccc2[nH]cc(C3=CCN(Cc4ccccc4)CC3)c2c1 | 223 to 227
NNc1nc(C(F)(F)F)nc(-c2ccccc2)c1-c1ccccc1 | 182 to 186
COC(=O)c1ccc(NC(=O)C(N)c2ccc3c(c2)C(C)(C)CCC3(C)C)n1C (stereo not given) | 143 to 144
COC(=O)c1ccc(C(=O)c2cc3c(cc2C)OC2(C)C4CCC(C)(C4)C32C)cc1 (stereo not given) | 140 to 142
CNC(=O)c1ccc2c(c1)C(=O)N1CCC[C@@H]1CO2 | 186 to 189
CC(C)(C)c1ccc2occ(N)c(=S)c2c1 | 168
CC(C)OC(=O)C1Oc2ccccc2Cc2ccccc2O1 | 94 to 97
O=C(CCc1cnoc1-c1ccccc1)Nc1nc(-c2ccc(Cl)cc2)cs1 | 172 to 173
CNC12CCCCC1CCc1cc(O)ccc12 (stereo not given) | 191
CCOC(=O)c1cc([N+](=O)[O-])c(C(=O)O)cc1C(=O)O | 189 to 191
CNC(=O)C1=CC(CF)(CF)Oc2ccc(Cl)cc21 | 175 to 176
CC(=O)Nc1ccccc1S(=O)(=O)NCCN1[C@H](C)Cc2ccsc2[C@@H]1C (relative stereo) | 104 to 109
COc1ccc(OCC(O)COc2cccc3oc(C(=O)O)cc(=O)c23)cc1 (stereo not given) | 125 to 126
CC(=NO)C(C)(C)NCC(F)(F)CNC(C)(C)C(CCn1ccnc1[N+](=O)[O-])=NO | 90 to 92
CCCCCOC1CCN(S(=O)(=O)C=Cc2ccccc2)C1=O (stereo not given) | 66 to 68
O=C(O)C1(CCc2ccc(Cl)cc2)CCN(CC2CC2)CC1 | 250
CC(=O)OC1CSC(Oc2cccc(-c3cccnc3)c2)C(OC(C)=O)C1OC(C)=O (stereo not given) | 123 to 126
Cc1cccc2c1CC(n1ccnc1C(N)=O)C2=O (stereo not given) | 160
COc1cccc2c1-c1ccc3c(c1C(O)O2)C(C)=CC(C)(C)N3 (stereo not given) | 184 to 185
CC(=O)CC(=O)OCCCOC(=O)c1ccc(OCCn2ccnc2)cc1 | 49.5 to 51.5

Structure (SMILES) | melting point [°C]
COc1ccc(C(=O)Nc2ccccc2)cc1NS(=O)(=O)c1cccc2c(N(C)C)cccc12 | 231 to 232
CCOC(=O)NCCS(=O)CC(=O)O (stereo not given) | 93.1 to 94.1
CCn1nnn(-c2cc(OCOC)c(Cl)cc2Cl)c1=O | 112 to 113
CC(C#Cc1cccc(C2=NCC(c3ccccc3)O2)c1)N(O)C(N)=O (stereo not given) | 145 to 146
COc1cc(C(C)=O)ccc1OCCCCN1CCN(c2n[nH]c3cc(F)ccc23)CC1 | 156 to 158
Cc1ccccc1CC(=O)Nc1cc(C)c(S(=O)(=O)C[N+](=O)[O-])c(C)c1 | 188 to 190
CCN(c1ccccc1C)S(=O)(=O)c1cc([N+](=O)[O-])ccc1C | 78 to 80
CNC(=O)c1ccc(C2C(C(=O)c3ccc(C)cc3)=C(O)C(=O)N2c2ncc(S(=O)(=O)c3ccc([N+](=O)[O-])cc3)s2)cc1 (stereo not given) | 195 to 197
COC(=O)C1CCc2cc(C(=O)c3cccs3)c(O)cc21 (stereo not given) | 183 to 184
CC(C)n1nc(-c2sc(C(=O)N(C)C)nc2-c2ccccc2)ccc1=O | 141 to 144
O=c1[nH]c2ccccc2n1CCN1CCN(c2cc(O)cc(C(F)(F)F)c2)CC1 | 170
Nc1nccc(OCC(F)(F)F)c1N | 126 to 128
COC(=S)NS(=O)(=O)c1ccc(Cl)cc1 | 129 to 130
Cc1cc2n(n1)-c1ccc(Cl)cc1C(c1ccccc1)=NC2 | 105 to 107
CC(Br)c1ccc2c(-c3ccccc3)onc2c1 (stereo not given) | 99 to 102
CCOC(=O)c1sc(-c2ccc3c(=O)n(CC(C)C)c(CNC(=O)OC(C)(C)C)c(-c4ccccc4)c3c2)nc1C | 201 to 202
CC(C)Cn1cnc2c(N)nc3c(c21)CCNC3 | 220 to 223
CCCc1nc2c(N)nc3ccccc3c2n1CC1(O)CCSCC1 | 243 to 244
CCNC(=O)N(NC(=O)c1cccc(Cl)c1)C(C)(C)C | 67 to 68
C#Cc1ccc(C23OCC(c4ccc(F)c(F)c4)(CO2)CO3)cc1 | 204 to 205
CC(O)C(=O)Nc1ccc(C2=NNC(=O)NC2C)cc1 (stereo not given) | 217 to 225
NC(=O)C1=CC=CN(CCc2ccc(Cl)s2)C1Oc1ccc(F)cc1 (stereo not given) | 78 to 80

Structure (SMILES) | melting point [°C]
O=C(Nc1ccc(F)cc1)NN1CC=CCC1 | 156 to 157
O=C(O)c1ccc(OC(=O)c2ccc(O)c(C34CC5CC(CC(C5)C3)C4)c2)cc1 | 269 to 271
COc1ccc(C(=O)/C(=C\c2ccccc2)C(=O)OC(C)(C)C)c(O)c1 | 105 to 107
Cn1cc(C(N)=O)c(Nc2ccc(C#N)cc2F)cc1=O | 261 to 266
C[Si](C)(C)CCCOc1ccc(O)c(C(=O)O)c1 | 115 to 116
N#Cc1ccc(Oc2ccccc2)cc1Oc1ccccc1 | 85 to 86
c1cn2cnnc2c2cc3c(cc12)OCO3 | 267 to 269
CCc1cc(OCc2ccc(C(=O)NS(=O)(=O)c3ccccc3C)cc2)c2c(n1)CCCC2 | 266 to 268
COC(=O)NNC(=S)Cc1ccc(C(C)(C)C)cc1 | 93.5 to 94
CN(C)C=C1CC(=O)Nc2ccccc2C1=O | 203 to 205
CN(C)C1(c2ccccc2)CCC(CNC(=O)N2CCCC(c3c[nH]c4ccc(F)cc34)C2)CC1 (stereo not given) | 98 to 101
Cc1oncc1C(=O)c1ccc(C(F)(F)F)cc1[N+](=O)[O-] | 85 to 86
Nc1nc(N)nc(C2CCN(c3ccccc3)CC2)n1 | 202 to 204
O=C(Nc1ccccc1S(=O)(=O)NCC1CCCCC1)N[C@@H](Cc1ccc(NC(=O)c2c(Cl)cccc2Cl)cc1)C(=O)O | 185
CCCCOC(=O)S(=O)(=O)Nc1sc(CC(C)C)cc1-c1ccc(Cn2c(-c3ccccc3)nc(OC)c2C=O)c(Cl)c1 | 58
C=Cc1c(C)oc(-c2ccc(S(C)(=O)=O)cc2)c(Oc2ccc(F)cc2F)c1=O | 184
O=C(CC1CCNCC1)c1ccc(N2CCCC2)cc1 | 144 to 145
Cn1cc2c(n1)CCCc1c-2cnn1C | 176 to 178
CC(C)(C)OC(=O)C[C@H](NC(=O)CNC(=O)c1csc(NC(=O)NCc2ccccc2)n1)C(=O)Nc1ccccc1C(=O)OC(C)(C)C | 116
Cc1cccc(-c2nc(Cl)cc(Cl)n2)c1 | 80 to 81
COc1ccc(-c2cccc(S(=O)(=O)N3CCC(Nc4nc(Nc5cccc(C(F)(F)F)c5)nc(OCC(F)(F)F)n4)CC3)c2)cc1 | 180 to 182
